Reference: patent publication US7709458B2, “Method for inhibiting cancer cell proliferation or increasing cancer cell apoptosis” (priority 2004, dated 2010)

Tests used:
[1] = system: H508 human colon cancer cells; assay: H508 colon cancer cell proliferation assay (sulforhodamine B colorimetric assay); type: cell-based; conditions: for effect on basal H508 cell proliferation / effect on EGF-induced H508 cell proliferation / effect on acetylcholine-induced H508 cell proliferation: 50 μM; for effect on basal H508 cell proliferation / potency in reducing acetylcholine- and EGF-stimulated H508 proliferation compared with c-di-GMP: 5 days incubation; for effect on EGF-induced H508 cell proliferation: EGF 1 ng/ml; for effect on EGF-induced H508 cell proliferation / effect on acetylcholine-induced H508 cell proliferation: 5 days; for effect on acetylcholine-induced H508 cell proliferation: acetylcholine 300 μM
Method: H508 colon cancer cell culture. H508 human colon cancer cells were grown in RPMI 1640 (ATCC) supplemented with 10% fetal bovine serum (FBS) (Biowhittaker). Adherent cultures were passaged weekly at subconfluence after trypsinization. Cultures were maintained in incubators at 37° C. in an atmosphere of 5% CO2 and 95% air.
H508 colon cancer cell proliferation assay. Cell proliferation was determined using the sulforhodamine B (SRB) colorimetric assay (Skehan et al., 1990). Cells were seeded in 96-well plates (Corning Glass Works, Corning, N.Y.) at approx. 10% confluence and allowed to attach for 24 h. Growth medium was removed and fresh medium without FBS and containing the indicated concentration of test agent was added. Cells were incubated for the indicated periods of time at 37° C. in an atmosphere of 5% CO2 and 95% air. After incubation, cells were treated for 30 min with 0.4% (w/v) SRB dissolved in 1% acetic acid. Protein-bound dye was extracted with unbuffered 10 mM Tris base. Absorbance was measured at 560 nm using a computer-interfaced, 96-well microtiter plate reader.
c-di-GMP inhibits proliferation of human colon cancer cells. The potential therapeutic actions of c-di-GMP were examined on basal and growth factor-stimulated proliferation of cells derived from a moderately differentiated human cecal adenocarcinoma (H508 cells) that express M3 muscarinic (M3R) and epidermal growth factor (EGF) receptors (EGFR) (Cheng et al., 2003). Cell proliferation was determined using the validated sulforhodamine B (SRB) calorimetric assay (Skehan et al., 1990). H508 cells were incubated in the absence or presence of a growth stimulant, acetylcholine (300 μM) and EGF (1 ng/ml) alone or with increasing concentrations of c-di-GMP (0.5-50 μM). After a 5-day incubation, the highest concentration of c-di-GMP tested, 50 μM, reduced basal H508 cell proliferation by approx. 15% (FIG. 1; p<0.05 compared to control, Student's unpaired t-test).

[2] = patients with Stage II or III disease; adjuvant chemotherapy (Bresalier, 2002); cited from earlier work

Row | Compound | effect on basal H508 cell proliferation [1] | effect on EGF-induced H508 cell proliferation [1] | effect on acetylcholine-induced H508 cell proliferation [1] | potency in reducing acetylcholine- and EGF-stimulated H508 proliferation compared with c-di-GMP [1] | reduction of colon cancer mortality [2] [%] | reduction of colon cancer recurrence [2] [%]
1 | Nc1nc2c(ncn2[C@@H]2O[C@H](COP(=O)(O)O)[C@@H](O)[C@H]2O)c(=O)[nH]1 [5′-GMP, guanosine 5′-monophosphate, reference compound] | neither of the guanosine analogs tested, cGMP and 5′-GMP, altered basal proliferation | reduced | reduced | less potent in this action than c-di-GMP | – | –
2 | O=c1[nH]cc(F)c(=O)[nH]1 [5-fluorouracil] | – | – | – | – | 33 | 42
3 | Nc1nc2c(ncn2[C@@H]2O[C@@H]3COP(=O)(O)O[C@H]3[C@H]2O)c(=O)[nH]1 [cGMP, guanosine 3′,5′-cyclic monophosphate, reference compound] | neither of the guanosine analogs tested, cGMP and 5′-GMP, altered basal proliferation | reduced | reduced | less potent in this action than c-di-GMP | – | –
